This assay concerns the target interaction between p53 and MDM2 proteins (Homo sapiens, UniProt Q00987). Kind of assay: HTRF assay of inhibition of the p53-MDM2 interaction (GST-MDM2 / biotinylated p53 peptide). The format is binding. The following applies: recombinant GST-tagged MDM2 and biotinylated p53 peptide, 0.02% BSA. On the procedure: In a […], the ability of the compounds to inhibit the interaction between p53 and MDM2 proteins was measured. The ability of the compounds to inhibit the interaction between p53 and MDM2 proteins was measured by an HTRF (homogeneous time-resolved fluorescence) assay in which recombinant GST-tagged MDM2 binds to a peptide that resembles the MDM2-interacting region of p53 (Lane et al.). Binding of GST-MDM2 protein and p53-peptide (biotinylated on its N-terminal end) is registered by the FRET (fluorescence resonance energy transfer) between Europium (Eu)-labeled anti-GST antibody and streptavidin-conjugated Allophycocyanin (APC). […]
Background: In TR-FRET formats the signal depends on donor and acceptor labels being close together.

In general, IC50 refers to the concentration that gives 50% inhibition.

interaction between p53 and MDM2 proteins, sequence (Q00987 whole entry): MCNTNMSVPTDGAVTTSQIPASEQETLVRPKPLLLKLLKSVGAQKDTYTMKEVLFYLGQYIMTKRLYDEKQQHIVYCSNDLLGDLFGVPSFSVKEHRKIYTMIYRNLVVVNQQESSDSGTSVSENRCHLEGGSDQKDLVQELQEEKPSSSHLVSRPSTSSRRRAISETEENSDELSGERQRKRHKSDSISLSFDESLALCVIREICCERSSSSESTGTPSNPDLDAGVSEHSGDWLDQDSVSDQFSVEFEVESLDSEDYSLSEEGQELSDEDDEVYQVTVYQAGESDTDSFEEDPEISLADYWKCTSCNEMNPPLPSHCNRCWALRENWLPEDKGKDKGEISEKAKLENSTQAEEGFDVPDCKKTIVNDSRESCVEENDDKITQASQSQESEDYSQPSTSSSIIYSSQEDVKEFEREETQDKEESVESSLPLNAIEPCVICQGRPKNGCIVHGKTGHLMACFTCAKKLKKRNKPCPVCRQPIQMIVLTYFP

As for `O=C1Nc2cc(Cl)ccc2C1(Cc1cccc(Cl)c1)Nc1cccc(OC(F)F)c1` (racemic) [Example 19, rac-6-chloro-3-(3-chloro-benzyl)-3-(3-difluoromethoxy-phenylamino)-1,3-dihydro-indol-2-one], the IC50 stood at 2.56 nM. To `O=C1Nc2cc(Cl)ccc2C1(Cc1cccc(Cl)c1)NC1CCC1` (racemic) [Example 49, rac-6-chloro-3-(3-chloro-benzyl)-3-cyclobutylamino-1,3-dihydro-indol-2-one] belongs 2.54 nM. To `O=C1Nc2cc(Cl)ccc2C1(Cc1cccc(Cl)c1)Nc1ccc(Br)cc1F` (racemic) [Example 11, rac-3-(4-bromo-2-fluoro-phenylamino)-6-chloro-3-(3-chloro-benzyl)-1,3-dihydro-indol-2-one] belongs 3.73 nM; to `O=C1Nc2cc(Cl)ccc2C1(Cc1cccc(Cl)c1)N1CCCC(O)C1` (racemic) [Example 62, rac-6-chloro-3-(3-chloro-benzyl)-3-(3-hydroxy-piperidin-1-yl)-1,3-dihydro-indol-2-one], 3.68 nM.

Source of the values: patent publication US8058269B2, “Oxindole derivatives” (Hoffman-La Roche Inc., priority 2006, dated 2011).
